The values below are quoted from earlier work in patent US20070122482A1, “Method for preparing modified release pharmaceutical compositions” (priority 2003, published 2007).

Read-outs that look alike come from different tables or passages of the source.

For series [1] the following is noted: for Solubility in water: Table 1, Poorly-Soluble Drug Candidates; for Solubility In Water: Table 2, Poorly-Soluble Drugs with Low Bioavailability.

On to `NC(N)=Nc1nc(CSCCC(N)=NS(N)(=O)=O)cs1` [Famotidine], for which, in series [1], the Solubility in water entry was “Slightly” and the “Solubility In Water” value is on record as “Slightly soluble”. As to `COc1cc2nc(N3CCN(C(=O)C4COc5ccccc5O4)CC3)nc(N)c2cc1OC` (stereo not drawn) [Doxazosin], the Solubility in water result in series [1] is “Slightly”.

`CCOC(=O)[C@H](CCc1ccccc1)N[C@@H](C)C(=O)N1CCC[C@H]1C(=O)O` [Enalapril]: the Solubility in water result in series [1] is “Sparingly”. On to `CCCC1O[C@@H]2C[C@H]3[C@@H]4CCC5=CC(=O)C=C[C@]5(C)[C@H]4[C@@H](O)C[C@]3(C)[C@]2(C(=O)CO)O1` (stereo partly drawn) [Budesonide], for which, in series [1], the Solubility in water entry is “Sparingly” and the “Solubility In Water” value is “Sparingly soluble”. The Bioavailability entry (Table 2) is given as “Low (˜15%)”. With `CN(C/C=C/C#CC(C)(C)C)Cc1cccc2ccccc12` [Terbinafine], the Solubility in water result in series [1] is recorded as “Slightly”. For `OCCN(CCO)c1nc(N2CCCCC2)c2nc(N(CCO)CCO)nc(N3CCCCC3)c2n1` [Dipyridamole], in series [1], the Solubility in water entry was “Slightly”. For `COCCCC/C(=N\OCCN)c1ccc(C(F)(F)F)cc1` [Fluvoxamine], the Solubility in water result in series [1] was “Sparingly”. In the case of `COc1ccc2[nH]c([S+]([O-])Cc3ncc(C)c(OC)c3C)nc2c1` (stereo not drawn) [Omeprazole], the Solubility in water result in series [1] is given as “Slightly”.

In the case of `CC(C)(C)NC(=O)[C@H]1CC[C@H]2[C@@H]3CC[C@H]4NC(=O)C=C[C@]4(C)[C@H]3CC[C@]12C` [Finasteride], the Solubility in water result in series [1] was “Insoluble”. As to `CN1C(C(=O)Nc2ccccn2)=C(O)c2ccccc2S1(=O)=O` [Piroxicam], the Solubility in water entry in series [1] is “Sparingly”. `CCn1cc(C(=O)O)c(=O)c2cc(F)c(N3CCNCC3)cc21` [Norfloxacin]: in series [1], the Solubility in water entry was “Slightly” and the “Solubility In Water” value is “Slightly soluble”. Regarding `CC(CCc1ccc(O)cc1)NCCc1ccc(O)c(O)c1` (stereo not drawn) [Dobutamine], in series [1], the Solubility in water entry is given as “Sparingly”. Turning to `CN1CCN(C2=Nc3cc(Cl)ccc3Nc3ccccc32)CC1` [Clozapine], the Solubility in water entry in series [1] was “Slightly”. For the compound `CCCC(CCC)C(=O)O` [Divalproex], in series [1], the Solubility in water entry is on record as “Slightly”. As for `OCCN1CCN(CCCN2c3ccccc3Sc3ccc(C(F)(F)F)cc32)CC1` [Fluphenazine], the “Solubility In Water” value in series [1] is reported as “Insoluble”. For the compound `CO/N=C(\C(=O)N[C@@H]1C(=O)N2C(C(=O)O)=C(COC(C)=O)CS[C@H]12)c1csc(N)n1` [Cefotaxime], in series [1], the Solubility in water entry is recorded as “Sparingly”. Take Cholestyramine: the Solubility in water result in series [1] was “Insoluble”. Regarding `CCOC(=O)C1=C(COCCN)NC(C)=C(C(=O)OC)C1c1ccccc1Cl` (stereo not drawn) [Amlodipine], in series [1], the Solubility in water entry is recorded as “Slightly”. Regarding `COC(=O)C1=C(C)NC(C)=C(C(=O)OC(C)C)C1c1cccc2nonc12` (stereo not drawn) [Isradipine], in series [1], the Solubility in water entry was “Insoluble” and the “Solubility In Water” value is given as “Insoluble”. As for `C[C@@H]1C[C@H]2[C@@H]3CCC4=CC(=O)C=C[C@]4(C)[C@@]3(Cl)[C@@H](O)C[C@]2(C)[C@@]1(O)C(=O)CCl` [Mometasone], the Solubility in water entry in series [1] was “Insoluble”. Take `CC(=O)S[C@@H]1CC2=CC(=O)CC[C@]2(C)[C@H]2CC[C@@]3(C)[C@@H](CC[C@@]34CCC(=O)O4)[C@H]12` [Spironolactone]: the “Solubility In Water” value in series [1] was “Insoluble”. On to `C#C[C@]1(O)CC[C@H]2[C@@H]3CCC4=Cc5oncc5C[C@]4(C)[C@H]3CC[C@@]21C` [Danazol], for which the “Bioavailability (in words)” value (Table 2) was “Low”. `CC(C)(C)NC(=O)[C@@H]1C[C@@H]2CCCC[C@@H]2CN1C[C@@H](O)[C@H](Cc1ccccc1)NC(=O)[C@H](CC(N)=O)NC(=O)c1ccc2ccccc2n1` [Saquinavir]: the Solubility in water entry in series [1] is given as “Practically insoluble”. On to `C[C@]12CC[C@H]3[C@@H](CCC4=CC(=O)CC[C@@]43C)[C@@H]1CC[C@@H]2O` [Testosterone], for which the “Solubility In Water” value in series [1] is listed as “Insoluble”. For the same compound, for the setting “Table 2”, the “Bioavailability (in words)” value is on record as “Low”. In the case of `CC1=C(/C=C/C(C)=C/C=C/C(C)=C\C(=O)O)C(C)(C)CCC1` [Isotretinoin], the Solubility in water entry in series [1] is “Insoluble”. For `CC(=O)OC[C@H]1O[C@@H]([S-])[C@H](OC(C)=O)[C@@H](OC(C)=O)[C@@H]1OC(C)=O.CCP(CC)CC.[Au+]` [Auranofin], the “Solubility In Water” value in series [1] is given as “Slightly soluble”. Also, the Bioavailability result (in vivo) is given as “Low (15-25%)”.

On to `NC(=O)N1c2ccccc2C=Cc2ccccc21` [Carbamazepine], for which the Solubility in water entry in series [1] was “Insoluble”. Regarding `Nc1ccc(O)c(C(=O)O)c1` [Mesalamine], under “Table 2”, the Bioavailability entry is reported as “Low (˜20%)”. Consider `Cc1cccc(Nc2ccccc2C(=O)O)c1C` [Mefenamic acid], for which, in series [1], the Solubility in water entry was “Slightly”. As for `Cc1ncc2n1-c1ccc(Cl)cc1C(c1ccccc1F)=NC2` [Midazolam], in series [1], the Solubility in water result is listed as “Insoluble”. Take `COc1ccc(Cl)cc1C(=O)NCCc1ccc(S(=O)(=O)NC(=O)NC2CCCCC2)cc1` [Glyburide]: the Solubility in water entry in series [1] was “Sparingly”. `C=CCC1(CC(C)C)C(=O)NC(=O)NC1=O` [Butalbital]: the Solubility in water entry in series [1] is “Insoluble”.

For `Cc1nnc2n1-c1ccc(Cl)cc1C(c1ccccc1)=NC2` [Alprazolam], in series [1], the Solubility in water result is reported as “Insoluble”. As for `CC(C)(C)c1ccc(C(O)CCCN2CCC(C(O)(c3ccccc3)c3ccccc3)CC2)cc1` (stereo not drawn) [Terfenadine], the Solubility in water result in series [1] was “Slightly”.

Take `CCc1cccc2c3c([nH]c12)C(CC)(CC(=O)O)OCC3` (stereo not drawn) [Etodolac]: the Solubility in water result in series [1] is “Insoluble”. For the compound `Cn1cnc([N+](=O)[O-])c1Sc1ncnc2nc[nH]c12` [Azathioprine], the Solubility in water result in series [1] is recorded as “Insoluble”. Take `OCCN1CCN(CCCN2c3ccccc3Sc3ccc(Cl)cc32)CC1` [Perphenazine]: the “Bioavailability (in words)” value (Table 2) was “Low”.

Regarding `COc1cc(N)c(Cl)cc1C(=O)NC1CCN(CCCOc2ccc(F)cc2)CC1OC` (stereo not drawn) [Cisapride], in series [1], the Solubility in water entry is on record as “Insoluble” and the “Solubility In Water” value is “Insoluble”. For the compound `CC(=O)N1CCN(c2ccc(OCC3COC(Cn4ccnc4)(c4ccc(Cl)cc4Cl)O3)cc2)CC1` (stereo not drawn) [Ketoconazole], the Solubility in water entry in series [1] was “Insoluble”. As to `CCOC(=O)[C@H](CCc1ccccc1)N[C@@H](C)C(=O)N1Cc2ccccc2C[C@H]1C(=O)O` [Quinapril], in series [1], the Solubility in water entry is on record as “Insoluble”. For `Nc1nnc(-c2cccc(Cl)c2Cl)c(N)n1` [Lamotrigine], the Solubility in water entry in series [1] is listed as “Slightly”. As to `COc1cc([C@@H]2c3cc4c(cc3[C@@H](O[C@@H]3O[C@@H]5CO[C@@H](C)O[C@H]5[C@H](O)[C@H]3O)[C@H]3COC(=O)[C@H]23)OCO4)cc(OC)c1O` [Etoposide], in series [1], the Solubility in water entry is “Very Slightly”. As to `CC[C@H]1OC(=O)[C@H](C)[C@@H](O[C@H]2C[C@@](C)(OC)[C@@H](O)[C@H](C)O2)[C@H](C)[C@@H](O[C@@H]2O[C@H](C)C[C@H](N(C)C)[C@H]2O)[C@](C)(OC)C[C@@H](C)C(=O)[C@H](C)[C@@H](O)[C@]1(C)O` [Clarithromycin], the Solubility in water result in series [1] was “Insoluble”. As to `O=C1NC(=O)C(c2ccccc2)(c2ccccc2)N1` [Phenytoin], the Solubility in water entry in series [1] is on record as “Insoluble”. With `OC(CCN1CCCCC1)(c1ccccc1)C1CC2C=CC1C2` (stereo not drawn) [Biperiden], in series [1], the “Solubility In Water” value was “Sparingly soluble”. In the case of `CC(=O)O[C@H]1C(=O)[C@@]2(C)[C@H]([C@H](OC(=O)c3ccccc3)[C@]3(O)C[C@H](OC(=O)[C@H](O)[C@@H](NC(=O)c4ccccc4)c4ccccc4)C(C)=C1C3(C)C)[C@]1(OC(C)=O)CO[C@@H]1C[C@@H]2O` [Paclitaxel], the Solubility in water result in series [1] is “Insoluble”. As for `Cc1c(OCC(F)(F)F)ccnc1C[S+]([O-])c1nc2ccccc2[nH]1` (stereo not drawn) [Lansoprazole], the Solubility in water result in series [1] is reported as “Insoluble”.

For `CC[C@H](C)C(=O)O[C@H]1C[C@@H](C)C=C2C=C[C@H](C)[C@H](CC[C@@H]3C[C@@H](O)CC(=O)O3)[C@H]21` [Lovastatin], in series [1], the Solubility in water result is on record as “Insoluble” and the “Solubility In Water” value was “Insoluble”.

As to `CC(C)Cc1ccc(C(C)C(=O)O)cc1` (stereo not drawn) [Ibuprofen], the Solubility in water result in series [1] is listed as “Insoluble”. As to `C[C@@](Cc1ccc(O)c(O)c1)(NN)C(=O)O` [Carbidopa], the Solubility in water result in series [1] was “Slightly”. Regarding `CN[C@H]1CC[C@@H](c2ccc(Cl)c(Cl)c2)c2ccccc21` [Sertraline], in series [1], the Solubility in water result is recorded as “Slightly” and the “Solubility In Water” value is on record as “Slightly soluble”. For the compound `OC(Cn1cncn1)(Cn1cncn1)c1ccc(F)cc1F` [Fluconazole], in series [1], the Solubility in water entry is “Slightly”.

For `Cc1ccc(-c2nc3ccc(C)cn3c2CC(=O)N(C)C)cc1` [Zolpidem], the Solubility in water result in series [1] is on record as “Sparingly”.

As for `COc1ccc2cc(CCC(C)=O)ccc2c1` [Nabumetone], in series [1], the Solubility in water result is reported as “Insoluble” and the “Solubility In Water” value is “Insoluble”. Regarding `O=[N+]([O-])O[C@H]1CO[C@H]2[C@@H]1OC[C@H]2O[N+](=O)[O-]` [Isosorbide dinitrate], in series [1], the Solubility in water result is listed as “Sparingly” and the “Solubility In Water” value is recorded as “Sparingly soluble”. On to `CN1CCCC(n2nc(Cc3ccc(Cl)cc3)c3ccccc3c2=O)CC1` (stereo not drawn) [Azelastine], for which the Solubility in water result in series [1] is listed as “Insoluble”.

On to `O=C(O)Cc1ccccc1Nc1c(Cl)cccc1Cl` [Diclofenac sodium], for which the Solubility in water entry in series [1] was “Sparingly”. For the compound `CCOC(=O)C1=C(C)NC(C)=C(C(=O)OC)C1c1cccc(Cl)c1Cl` (stereo not drawn) [Felodipine], in series [1], the Solubility in water entry was “Insoluble” and the “Solubility In Water” value is “Insoluble”. Turning to `CCOC(=O)[C@H](CCc1ccccc1)N[C@@H](C)C(=O)N1[C@H](C(=O)O)C[C@@H]2CCC[C@@H]21` [Ramipril], in series [1], the Solubility in water entry was “Insoluble”. Regarding `CC(C(=O)O)c1ccc(-c2ccccc2)c(F)c1` (stereo not drawn) [Flurbiprofen], the Solubility in water result in series [1] was “Slightly”.

Consider `CO[C@]12C[C@@H](COC(=O)c3cncc(Br)c3)CN(C)[C@@H]1Cc1cn(C)c3cccc2c13` [Nicergoline], for which, in series [1], the Solubility in water entry is listed as “Insoluble”. Turning to `CCCCCc1cc(O)c2c(c1)OC(C)(C)[C@@H]1CCC(C)=C[C@@H]21` [Dronabinol], the “Solubility In Water” value in series [1] was “Insoluble”.
